US10670605B2, “Cysteine reactive probes and uses thereof” (The Scripps Research Institute, priority 2015, dated 2020)
Where a name gives a salt, the structure may show the parent alone.

Assays:
TIGAR = biological target: T1, TIGAR (Homo sapiens, UniProt Q9NQ88); assay: TIGAR activity assay; assay type: biochemical; details: WT-TIGAR, concentration series
T1 construct: His6 (N); made in house; host or cells: E. coli BL21(DE3)
Protocol: TIGAR activity assay was conducted as described in Gerin et al. The Biochemical Journal 458:439-448 (2014). Formation of 3PG (3-phosphoglycerate) production from 23BPG (2,3-bisphosphoglycerate) was measured spectrophotometrically on a TECAN plate reader, measuring decrease in absorbance at 340 nm in clear, flat-bottom 96 well microplate (Corning® Costar®). 2 μL of recombinant TIGAR (10 mg/mL) was diluted into 1 mL dilution buffer (25 mM HEPES, pH 7.1, 25 mM KCl, 1 mM MgCl2). 25 μL of diluted protein was incubated for 1 h with the indicated concentration of compound (1 μL, 25× stock in DMSO). Then 75 μL of assay mixture comprised of 25 mM HEPES (pH 7.1), 25 mM KCl, 1 mM MgCl2, 0.5 mM NADH, 1 mM DTT, 1 mM 23BPG, 1 mM ATP-Mg, the equivalent of 1 μL each of rabbit muscle GAPDH (4000 units/mL, Sigma, G5537) and yeast PG kinase (6300 units/mL, Sigma, P7634) was added to the protein and decrease in absorbance was monitored at 340 nm. The background, calculated from samples lacking TIGAR, was subtracted from samples containing TIGAR. Experiments were performed in quadruplicate.

[1] = test system: splenic T cells from C57BL/6 mice; assay: Activation of primary mouse T cells (CD25, CD69); assay type: cell-based; details: C57BL/6, 8 h
Protocol: Spleens were harvested from female mice, perfused with collagenase, and incubated at 37° C. with 5% CO2 for 30 min. After this time, the spleens were homogenized. Cells that passed through a 100 μm cell strainer were collected and washed with RPMI. T cells were isolated from the splenocytes using the EasySepTM Mouse T cell Isolation Kit (19851; […]) according to manufacturer's instructions. 96-well plates were coated with anti-CD3 (1:200; BioXcell) and anti-CD28 (1:500; 302933; BioLegend) in PBS (100 μL/well) overnight at 4° C. The plates were then washed twice with PBS and to each well was added 500,000 primary T cells in 100 μL of RPMI supplemented with 10% FBS, glutamine, and Pen-Strep. Cells were then treated with 100 μL of media containing compound at the indicated concentrations (final well volume of 200 μL). Cells were left at 37° C. in a 5% CO2 incubator for the indicated periods of time and harvested by centrifugation (500 g, 8 min, 4° C.), followed by washing with PBS. […] Data was then analyzed with FlowJo software (Treestar Inc.). […]

[2] = test system: Cys residues in mouse T cells; assay: isoTOP-ABPP of DMF-treated mouse T cells; assay type: cell-based; details: 50 μM, 4 h
Protocol: Spleens were harvested from female mice, perfused with collagenase, and incubated at 37° C. with 5% CO2 for 30 min. After this time, the spleens were homogenized. Cells that passed through a 100 μm cell strainer were collected and washed with RPMI. T cells were isolated from the splenocytes using the EasySep™ Mouse T cell Isolation Kit (19851; […]) according to manufacturer's instructions. Cells were lysed by sonication and diluted to a concentration of 2 mg protein/mL. […] Site-specific engagement of electrophilic compounds was assessed by blockade of IA-alkyne probe labeling. […] Overlapping peptides with the same labeled cysteine (for example, same local sequence around the labeled cysteines but different charge states, MudPIT segment numbers, or tryptic termini) were grouped together, and the median ratio from each group was recorded as the R value of the peptide for that run.

primary human T cells = assay: IL-2 release (ELISA), anti-CD3 + anti-CD28 stimulated T cells; assay type: cell-based; details: anti-CD3, anti-CD28 stimulation, 8 h
Protocol: 96-well plates were coated with anti-CD3 (1:200; BioXcell) and anti-CD28 (1:500; 302933; BioLegend) in PBS (100 μL/well) overnight at 4° C. The plates were then washed twice with PBS and to each well was added 500,000 primary T cells in 100 μL of RPMI supplemented with 10% FBS, glutamine, and Pen-Strep. Cells were then treated with 100 μL of media containing compound at the indicated concentrations (final well volume of 200 μL). Cells were left at 37° C. in a 5% CO2 incubator for the indicated periods of time and harvested by centrifugation (500 g, 8 min, 4° C.), followed by washing with PBS. T cells were harvested and stimulated as described above. At the indicated time points, cell culture supernatants were collected and IL-2 levels were measured in clear microplates (991427; R&D Systems) according to the manufacturer's instructions (Human IL-2 DuoSet ELISA; DY202; R&D Systems). Plates were read in a Gemini SpectraMax 250 microplate reader set to 450 nm. Data represent mean±SE for four experiments per group.

T1 sequence (Q9NQ88 whole entry): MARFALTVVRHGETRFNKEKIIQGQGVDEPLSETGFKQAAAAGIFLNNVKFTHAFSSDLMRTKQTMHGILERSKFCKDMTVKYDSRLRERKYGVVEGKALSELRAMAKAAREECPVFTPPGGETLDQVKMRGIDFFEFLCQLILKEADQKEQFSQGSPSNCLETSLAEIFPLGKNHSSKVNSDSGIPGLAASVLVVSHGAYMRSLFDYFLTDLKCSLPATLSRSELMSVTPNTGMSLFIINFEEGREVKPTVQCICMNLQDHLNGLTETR

| SMILES | plateau of inhibition of TIGAR substrate turnover (TIGAR) [%] | activation of primary mouse splenic T cells [1] | fraction of conserved, quantified DMF-sensitive Cys also blocked (R >4) in mouse T cells [2] [%] | secretion of IL-2 (primary human T cells) |
| --- | --- | --- | --- | --- |
| C=CC(=O)N(c1ccccc1)c1ccc(Br)cc1 [compound 5] | 70 | – | – | – |
| COC(=O)/C=C/C(=O)OC [DMF, dimethyl fumarate] | – | suppressed | > 80 | strongly inhibited |
